Columns and labels:
[1] = test system: α-syn PFF injected mice; assay: In vivo intrastriatal α-syn PFF mouse model, oral BAG 956 (behaviour, histology, biochemistry)
Procedure: To test the neuroprotective potential of BAG 956, in vivo α-syn PFF mouse model was used for a short-term period. […] Next, BAG 956 efficacy was validated for long-term treatment on α-syn PFF mouse model by comprehensive behavioral and biochemical assays. Behavioral analysis was performed to evaluate the behavioral defect elicited by intrastriatal α-syn PFF injection and any restoration of behavioral dysfunction by oral administration of BAG 956 for 6 months at a low (2 mg/kg) or high (10 mg/kg) concentration after one-month recovery from α-syn PFF injection. PBS injected mice were treated vehicle or BAG956^high (10 mg/kg), whereas α-syn PFF injected mice were orally administered with vehicle, BAG 956^low (2 mg/kg), or BAG956^high (10 mg/kg) (FIG. 13A). […] The open field test (OFT) and elevated plus maze (EPM) were performed to evaluate locomotion, exploration, and anxiety behaviors. […] Next, hippocampal- or amygdala-dependent learning and memory based contextual or cued fear conditioning tests were performed. […] To examine whether the oral administration of BAG 956 could rescue the loss of DA neurons induced by intrastriatal α-syn PFF injection, the number of TH-positive neurons in the substantia nigra pars compacta (SNpc) was measured via an unbiased stereological counting analysis.

[2] = test system: blue light-illuminated opto-α-syn-mDA neurons; assay: Autophagy and aggregate clearance in blue light-illuminated opto-α-syn-mDA neurons; assay type: cell-based, human
Procedure: (§1) Because autophagy can be activated by the inhibition of PI 3-kinase (PI3K) or the PDK1 pathway, it was tested whether treatment with BAG 956 can induce the autophagic flux to decrease α-syn aggregates in opto-α-syn mDA neurons and MOs.

[3] = test system: opto-α-syn-MOs; assay: Autophagy in opto-α-syn-MOs kept in dark after blue light illumination; assay type: cell-based, human; conditions: treatment only during dark condition after blue light illumination for six days
Procedure: as §1

[4] = oral, 6 months, both 2 mg/kg and 10 mg/kg
[5] = blue light-illuminated opto-α-syn-mDA neurons
[6] = mDA neurons exposed to blue light

Cc1nc2cnc3ccc(C#Cc4cccnc4)cc3c2n1-c1ccc(C(C)(C)C#N)cc1 [BAG 956]
pathologic pSer129-α-syn immunoreactivity in TH-positive neurons of the SN (IHC) ([1]; long-term oral, 10 mg/kg): significantly rescued
number of TH- and Nissl-positive stained DA neurons in SNpc (stereological counting) ([1]; oral, 10 mg/kg): recovered
protein levels of TH in ventral midbrain and striatum ([1]; oral, 10 mg/kg): rescued
striatal TH-positive fiber density (IHC) ([1]; oral, 10 mg/kg): rescued
endpoint body mass ([1]; oral, 6 months, 2 mg/kg or 10 mg/kg, all groups): No endpoint body mass differences
time spent, number of entries in the far zone of the open arm of the EPM ([1]; oral, 6 months, 10 mg/kg): significantly restored
time spent, number of entries, travelled distance in the center zone of the OFT ([1]; oral, 6 months, 10 mg/kg): significantly restored
contextual or cued fear conditioning: total freezing time and freezing episode [1, 4]: recovered
fore- and hind-limb grip strength [1, 4]: dramatically recovered
latency to fall from the rotarod test [1, 4]: dramatically recovered
levels of pS129-α-syn in the TX-insoluble fraction of ventral midbrain (WB) ([1]; oral, both 2 mg/kg and 10 mg/kg): significantly reduced
LC-311 induction compared with BYL719 (alpelisib) or BAY 80-6946 (copanlisib) [2, 5]: more potent
level of LC-311 [2, 5]: increased
LC3+/5G4+ co-localized vesicles [2, 6]: increased number
number of LC3+ puncta [2, 6]: increased number
LC3+ puncta and LC3+/5G4+ co-localized dots [3]: consistent

From patent US20260023070A1, “OPTOGENETIC ALPHA-SYNUCLEIN AGGREGATION SYSTEM-BASED COMPOUND SCREENING PLATFORM IN PD-hiPSC-mDA NEURONS” (The Johns Hopkins University, priority 2022, published 2026)
